Tests used:
HTB-54 cells = test system: HTB-54 cells; design: method as in PMID 36257283; conditions: parent NSAIDs; cited from earlier work
HT-29 cells = conditions: parent NSAIDs; cited from earlier work
MCF-7 cells = test system: MCF-7 cells; design: method as in PMID 36257283; conditions: parent NSAIDs; cited from earlier work
AChE [1] = assay: AChE inhibition quoted from the literature; assay type: biochemical; conditions: AChE IC50 ratio to 14a
AChE [2] = test system: AChE; design: method as in PMID 25312723; conditions: cited from earlier work

COc1ccc2cc([C@H](C)C(=O)O)ccc2c1 [Naproxen, (2S)-2-(6-methoxynaphtalen-2-yl) propanoic acid]
IC50 (HTB-54 cells): > 100 µM | IC50 (HT-29 cells): > 100 µM | IC50 (MCF-7 cells): > 100 µM

CC(=O)Oc1ccccc1C(=O)O [ASA]
IC50 (HTB-54 cells): > 100 µM | IC50 (HT-29 cells): > 100 µM | IC50 (MCF-7 cells): > 100 µM

selenepezil
fold lower IC50 than compound 14a (AChE [1]): 9 fold | IC50 (AChE [2]): 0.097 µM

O=c1c2ccccc2[se]n1-c1ccccc1 [Ebselen, ebselen]
fold higher IC50 than compound 14a (AChE [1]): 32 fold | IC50 (AChE [2]): 29 µM

Reference: paper PMC9854712 (Antioxidants, 2023)
